The test deals with T1, GLP-1R (Homo sapiens, UniProt P43220).
T1 construct: host or cells: CRE-bla CHO-K1
Briefly: EC20 GLP-1(9-36) PAM cAMP assay: dose response of compound in the presence of fixed concentration of GLP-1(9-36). Type of test: cell-based. To be noted: GLP-1R CRE-bla CHO-K1 cells, compound dose response in presence of fixed concentration of GLP-1(9-36). A digest of the protocol: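 Positive allosteric modulation read as cAMP rise: 12-point compound titration combined with a fixed EC20 level of GLP-1(9-36) on GLP-1R CHO-K1 cells, IBMX present, 30 min at 37 °C. Luminescent HitHunter signal converted to cAMP; nonlinear fit gave EC50 and Emax.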
(cAMP levels reflect the balance of adenylyl cyclase and phosphodiesterase activity.)

56 compounds from patent publication US8778923B2, “GLP-1 receptor modulators” (Receptos, Inc., priority 2011, dated 2014) can be followed below.

T1 sequence (P43220 24-463): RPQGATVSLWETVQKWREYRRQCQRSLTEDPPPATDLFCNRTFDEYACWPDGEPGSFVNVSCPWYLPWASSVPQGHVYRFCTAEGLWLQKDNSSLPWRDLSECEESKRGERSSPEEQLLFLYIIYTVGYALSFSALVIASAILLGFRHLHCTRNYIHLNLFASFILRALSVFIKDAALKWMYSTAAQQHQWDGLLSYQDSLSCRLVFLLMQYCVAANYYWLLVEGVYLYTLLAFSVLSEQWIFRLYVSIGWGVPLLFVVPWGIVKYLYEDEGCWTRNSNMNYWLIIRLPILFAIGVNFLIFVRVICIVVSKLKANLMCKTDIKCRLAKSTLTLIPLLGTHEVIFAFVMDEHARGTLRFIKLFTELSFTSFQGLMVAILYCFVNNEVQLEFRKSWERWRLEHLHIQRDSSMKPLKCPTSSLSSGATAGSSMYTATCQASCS
T1 sequence (P01275 100-127 partner limits assumed): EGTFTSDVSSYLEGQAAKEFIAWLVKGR

As usually defined, the EC50 is the concentration that produces a half-maximal response. Turning to `CCCCCCCOc1ccc(-c2cnc(-c3ccc(C[C@H](NC(=O)c4cnn(C(C)(C)C)c4)C(=O)O)cc3)nc2)cc1` [Compound 143], the EC50 was less than 0.8 µM.
With `CCCCCCCOc1ccc(-c2cnc(-c3ccc(C[C@H](NC(=O)c4ccn(C(C)C)n4)C(=O)O)cc3)nc2)cc1` [Compound 144] the figure was 0.8 to 2.5 µM.
`CCCCCCCOc1ccc(-c2cnc(-c3ccc(C[C@H](NC(=O)c4cc(C)c(CC)s4)C(=O)O)cc3)nc2)cc1` [Compound 145]: the EC50 was in the range of 0.8 to 2.5 µM.
With `CCCCCCCOc1ccc(-c2cnc(-c3ccc(C[C@H](NC(=O)c4csc(C(C)C)c4)C(=O)O)cc3)nc2)cc1` [Compound 146] the figure was 2.5 to 5 µM; with `CCCCCCCOc1ccc(-c2cnc(-c3ccc(C[C@H](NC(=O)c4ccc(CCC)s4)C(=O)O)cc3)nc2)cc1` [Compound 147], 2.5 to 5 µM; with `CCCCCCCOc1ccc(-c2cnc(-c3ccc(C[C@H](NC(=O)c4cnc(C(C)C)s4)C(=O)O)cc3)nc2)cc1` [Compound 148], 0.8 to 2.5 µM.
With `CCCCCCCOc1ccc(-c2cnc(-c3ccc(C[C@H](NC(=O)c4cc5c(s4)CCCC5)C(=O)O)cc3)nc2)cc1` [Compound 149] the figure was 0.8 to 2.5 µM; with `CCCCCCCOc1ccc(-c2cnc(-c3ccc(C[C@H](NC(=O)c4cc5c(s4)CCC5)C(=O)O)cc3)nc2)cc1` [Compound 150], 0.8 to 2.5 µM.
With `CCCCCCCOc1ccc(-c2cnc(-c3ccc(C[C@H](NC(=O)c4cc5c(s4)CCC(C)C5)C(=O)O)cc3)nc2)cc1` (some centres unmarked) [Compound 151] the figure was 0.8 to 2.5 µM.
`CCCCCCCOc1ccc(-c2cnc(-c3ccc(C[C@H](NC(=O)c4ccc(C(C)C)s4)C(=O)O)cc3)nc2)cc1` [Compound 152]: the 50% effective concentration (EC50) lay within 0.8 to 2.5 µM.
The same measure for `CCCCCCCOc1ccc(-c2cnc(-c3ccc(C[C@H](NC(=O)c4ccc(CC(C)C)s4)C(=O)O)cc3)nc2)cc1` [Compound 153]: 0.8 to 2.5 µM; for `CCCCCCCOc1ccc(-c2cnc(-c3ccc(C[C@H](NC(=O)c4ccc(C(C)=O)s4)C(=O)O)cc3)nc2)cc1` [Compound 154]: less than 0.8 µM; for `CCCCCCCOc1ccc(-c2cnc(-c3ccc(C[C@H](NC(=O)Cc4cc5ccccc5s4)C(=O)O)cc3)nc2)cc1` [Compound 155]: 0.8 to 2.5 µM.
With `CCCCCCCOc1ccc(-c2cnc(-c3ccc(C[C@H](NC(=O)c4cc5ccccc5s4)C(=O)O)cc3)nc2)cc1` [Compound 156] the figure was 0.8 to 2.5 µM; with `CCCCCCCOc1ccc(-c2cnc(-c3ccc(C[C@H](NC(=O)c4cc5ccc(C)cc5s4)C(=O)O)cc3)nc2)cc1` [Compound 157], 0.8 to 2.5 µM.
With `CCCCCCCOc1ccc(-c2cnc(-c3ccc(C[C@H](NC(=O)c4cc5cccnc5s4)C(=O)O)cc3)nc2)cc1` [Compound 158] the figure was less than 0.8 µM; with `CC(C)(C)c1ccc(-c2cnc(-c3ccc(C[C@H](NC(=O)c4ccc(S(C)(=O)=O)cc4)C(=O)O)cc3)nc2)cc1` [Compound 159], 0.8 to 2.5 µM; with `CCc1ccc(C(=O)N[C@@H](Cc2ccc(-c3ncc(-c4ccc(C(C)(C)C)cc4)cn3)cc2)C(=O)O)cc1` [Compound 160], 0.8 to 2.5 µM.
For `CC(C)c1ccc(C(=O)N[C@@H](Cc2ccc(-c3ncc(-c4ccc(C(C)(C)C)cc4)cn3)cc2)C(=O)O)cc1` [Compound 161], the EC50 lay in the range of 0.8 to 2.5 µM.
The same measure for `CC(C)Oc1ccc(C(=O)N[C@@H](Cc2ccc(-c3ncc(-c4ccc(C(C)(C)C)cc4)cn3)cc2)C(=O)O)cc1` [Compound 162]: 0.8 to 2.5 µM; for `CC(C)Cc1ccc(C(=O)N[C@@H](Cc2ccc(-c3ncc(-c4ccc(C(C)(C)C)cc4)cn3)cc2)C(=O)O)cc1` [Compound 163]: 0.8 to 2.5 µM; for `CCCc1ccc(C(=O)N[C@@H](Cc2ccc(-c3ncc(-c4ccc(C(C)(C)C)cc4)cn3)cc2)C(=O)O)cc1` [Compound 164]: 0.8 to 2.5 µM.
The same measure for `CC(C)(C)c1ccc(-c2cnc(-c3ccc(C[C@H](NC(=O)c4ccc(C(C)(C)C)s4)C(=O)O)cc3)nc2)cc1` [Compound 165]: 0.8 to 2.5 µM; for `CCc1ccc(C(=O)N[C@@H](Cc2ccc(-c3ncc(-c4ccc(C(C)(C)C)cc4)cn3)cc2)C(=O)O)s1` [Compound 166]: 0.8 to 2.5 µM.
With `CC(C)n1cc(C(=O)N[C@@H](Cc2ccc(-c3ncc(-c4ccc(C(C)(C)C)cc4)cn3)cc2)C(=O)O)cn1` [Compound 167] the figure was 0.8 to 2.5 µM; with `CC(C)(C)c1ccc(-c2cnc(-c3ccc(C[C@H](NC(=O)c4cc(C(C)(C)C)n[nH]4)C(=O)O)cc3)nc2)cc1` [Compound 168], 0.8 to 2.5 µM; with `CC(C)(C)c1ccc(-c2cnc(-c3ccc(C[C@H](NC(=O)c4nnc(C(C)(C)C)s4)C(=O)O)cc3)nc2)cc1` [Compound 169], 5 to 10 µM.
`COc1ccc(C(=O)N[C@@H](Cc2ccc(-c3ncc(-c4ccc(C(C)(C)C)cc4)cn3)cc2)C(=O)O)cc1` [Compound 170]: the EC50 lay in the range of 0.8 to 2.5 µM.
The same measure for `CCOc1ccc(C(=O)N[C@@H](Cc2ccc(-c3ncc(-c4ccc(C(C)(C)C)cc4)cn3)cc2)C(=O)O)cc1` [Compound 171]: 0.8 to 2.5 µM.
In the case of `CC(C)(C)Cc1ccc(C(=O)N[C@@H](Cc2ccc(-c3ncc(-c4ccc(C(C)(C)C)cc4)cn3)cc2)C(=O)O)cc1` [Compound 172], the EC50 is 0.8 to 2.5 µM.
For the compound `CC(C)(C)c1ccc(-c2cnc(-c3ccc(C[C@H](NC(=O)c4ccc(OC(F)(F)F)cc4)C(=O)O)cc3)nc2)cc1` [Compound 173], the EC50 lay within 0.8 to 2.5 µM.
The same measure for `CC(C)(C)c1ccc(-c2cnc(-c3ccc(C[C@H](NC(=O)c4ccc(C(F)(F)F)cc4)C(=O)O)cc3)nc2)cc1` [Compound 174]: less than 0.8 µM; for `CC(C)(C)c1ccc(-c2cnc(-c3ccc(C[C@H](NC(=O)c4ccc(O)cc4)C(=O)O)cc3)nc2)cc1` [Compound 175]: less than 0.8 µM; for `CC(=O)c1ccc(C(=O)N[C@@H](Cc2ccc(-c3ncc(-c4ccc(C(C)(C)C)cc4)cn3)cc2)C(=O)O)cc1` [Compound 176]: 5 to 10 µM.
The same measure for `CC(C)(C)c1ccc(-c2cnc(-c3ccc(C[C@H](NC(=O)c4ncc(C(C)(C)C)s4)C(=O)O)cc3)nc2)cc1` [Compound 177]: 0.8 to 2.5 µM; for `CC(C)(C)c1ccc(-c2cnc(-c3ccc(C[C@H](NC(=O)c4cnn(C(C)(C)C)c4)C(=O)O)cc3)nc2)cc1` [Compound 178]: 0.8 to 2.5 µM.
The same measure for `CC(C)c1cc(C(=O)N[C@@H](Cc2ccc(-c3ncc(-c4ccc(C(C)(C)C)cc4)cn3)cc2)C(=O)O)cs1` [Compound 179]: 5 to 10 µM.
In the case of `CC(C)c1ncc(C(=O)N[C@@H](Cc2ccc(-c3ncc(-c4ccc(C(C)(C)C)cc4)cn3)cc2)C(=O)O)s1` [Compound 180], the EC50 was less than 0.8 µM.
The same measure for `CC(C)S(=O)(=O)c1ccc(C(=O)N[C@@H](Cc2ccc(-c3ncc(-c4ccc(C(C)(C)C)cc4)cn3)cc2)C(=O)O)cc1` [Compound 181]: 0.8 to 2.5 µM.
With `CC(C)(C)c1ccc(-c2cnc(-c3ccc(C[C@@H](NC(=O)c4ccc(C(C)(C)C)s4)C(=O)O)cc3)nc2)cc1` [Compound 182] the figure was 0.8 to 2.5 µM; with `CCCCCCCOc1ccc(-c2cnc(-c3ccc(C[C@H](NC(=O)c4ccc(OS(C)(=O)=O)cc4)C(=O)O)cc3)nc2)cc1` [Compound 183], 0.8 to 2.5 µM.
The same measure for `CCCCCCCOc1ccc(-c2cnc(-c3ccc(C[C@H](NS(=O)(=O)c4ccccc4)C(=O)O)cc3)nc2)cc1` [Compound 184]: 0.8 to 2.5 µM; for `CCCCCCCOc1ccc(-c2cnc(-c3ccc(C[C@H](NS(=O)(=O)c4ccc(Cl)cc4)C(=O)O)cc3)nc2)cc1` [Compound 185]: 0.8 to 2.5 µM; for `CCCCCCCOc1ccc(-c2cnc(-c3ccc(C[C@H](NS(=O)(=O)c4ccc(OC)cc4)C(=O)O)cc3)nc2)cc1` [Compound 186]: 0.8 to 2.5 µM.
For the compound `CCCCCCCOc1ccc(-c2cnc(-c3ccc(C[C@H](NS(=O)(=O)c4ccc(C)cc4)C(=O)O)cc3)nc2)cc1` [Compound 187], the EC50 lay in the range of 2.5 to 5 µM.
The same measure for `CCCCCCCOc1ccc(-c2cnc(-c3ccc(C[C@H](NS(=O)(=O)c4ccc(Cl)c(Cl)c4)C(=O)O)cc3)nc2)cc1` [Compound 188]: 2.5 to 5 µM; for `CCCCCCCOc1ccc(-c2cnc(-c3ccc(C[C@H](NS(=O)(=O)c4ccc(OC(C)C)cc4)C(=O)O)cc3)nc2)cc1` [Compound 189]: 0.8 to 2.5 µM; for `CCCCCCCOc1ccc(-c2cnc(-c3ccc(C[C@H](NS(=O)(=O)c4ccc(C(F)(F)F)cc4)C(=O)O)cc3)nc2)cc1` [Compound 190]: 2.5 to 5 µM.
With `CCCCCCCOc1ccc(-c2cnc(-c3ccc(C[C@H](NC(=O)c4ccc(C(C)(C)C)s4)C(=O)O)cc3)nc2)cc1` [Compound 192, (S)-2-(5-(tert-butyl)thiophene-2-carboxamido)-3-(4-(5-(4-(heptyloxy)phenyl)-pyrimidin-2-yl)phenyl)propanoic acid] the figure was less than 0.8 µM; with `CCCCCCCOc1ccc(-c2cnc(-c3ccc(C[C@@H](NC(=O)c4ccc(C(C)(C)C)s4)C(=O)O)cc3)nc2)cc1` [Compound 193], 0.8 to 2.5 µM.
With `CC(C)(C)c1ccc(C(=O)N[C@@H](Cc2ccc(-c3ncc(-c4ccc(N5CCCCC5)cc4)cn3)cc2)C(=O)O)cc1` [Compound 194] the figure was 0.8 to 2.5 µM; with `CC(C)c1ccc(-c2cnc(-c3ccc(C[C@H](NC(=O)c4ccc(C(C)(C)C)cc4)C(=O)O)cc3)nc2)cc1` [Compound 195], 0.8 to 2.5 µM.
With `CC(C)(C)c1ccc(C(=O)N[C@@H](Cc2ccc(-c3ncc(-c4ccccc4)cn3)cc2)C(=O)O)cc1` [Compound 196], the concentration giving a half-maximal response (EC50) was 2.5 to 5 µM.
The same measure for `Cn1ccc2c(-c3cnc(-c4ccc(C[C@H](NC(=O)c5ccc(C(C)(C)C)cc5)C(=O)O)cc4)nc3)cccc21` [Compound 197]: 2.5 to 5 µM; for `COc1ccc(-c2cnc(-c3ccc(C[C@H](NC(=O)c4ccc(C(C)(C)C)cc4)C(=O)O)cc3)nc2)cc1` [Compound 198]: 5 to 10 µM; for `CC(C)(C)c1ccc(C(=O)N[C@@H](Cc2ccc(-c3ncc(-c4ccc(C(C)(C)C)cc4)cn3)cc2)C(=O)O)cc1` [Compound 199]: 0.8 to 2.5 µM.
